Test: Antagonist activity at P2Y12 receptor in human platelet rich plasma assessed as inhibition of ADP-induced platelet aggregation by light transmission aggregometry

| Structure (SMILES) | IC50 [nM] |
| --- | --- |
| CCCCCOC(=O)N1CCN(C(=O)[C@H](CCC(=O)O)NC(=O)c2nc(-c3ccccc3)cc(N3CCC(N4CCOCC4)CC3)n2)CC1 [(S)-4-(4-(4-morpholinopiperidin-1-yl)-6-phenylpyrimidine-2-carboxamido)-5-oxo-5-(4-(pentyloxycarbonyl)piperazin-1-yl)pentanoic acid] | 3000 |
| CCCCCOC(=O)N1CCN(C(=O)[C@H](CCC(=O)O)NC(=O)c2nc(OCC3CCN(C)CC3)cc(-c3ccccc3)n2)CC1 [(S)-4-(4-((1-methylpiperidin-4-yl)methoxy)-6-phenylpyrimidine-2-carboxamido)-5-oxo-5-(4-(pentyloxycarbonyl)piperazin-1-yl)pentanoic acid] | 3800 |
| CCCCCOC(=O)N1CCN(C(=O)[C@H](CCC(=O)O)NC(=O)c2cc(OCCN(CC)CC)nc(-c3ccccc3)n2)CC1 [(S)-4-(6-(2-(diethylamino)ethoxy)-2-phenylpyrimidine-4-carboxamido)-5-oxo-5-(4-(pentyloxycarbonyl)piperazin-1-yl)pentanoic acid] | 15000 |
| CCCCCOC(=O)N1CCN(C(=O)[C@H](CCC(=O)O)NC(=O)c2cc(SCCO)nc(-c3ccccc3)n2)CC1 [(S)-4-(6-(2-hydroxyethylthio)-2-phenylpyrimidine-4-carboxamido)-5-oxo-5-(4-(pentyloxycarbonyl)piperazin-1-yl)pentanoic acid] | > 10000 |
| CCCCCOC(=O)N1CCN(C(=O)[C@H](CCC(=O)O)NC(=O)c2cc(NCCOC)nc(-c3ccccc3)n2)CC1 [(S)-4-(6-(2-methoxyethylamino)-2-phenylpyrimidine-4-carboxamido)-5-oxo-5-(4-(pentyloxycarbonyl)piperazin-1-yl)pentanoic acid] | 2600 |
| CCCCCOC(=O)N1CCN(C(=O)[C@H](CCC(=O)O)NC(=O)c2cc(NCCCN(C)C)nc(-c3ccccc3)n2)CC1 [(S)-4-(6-(3-(dimethylamino)propylamino)-2-phenylpyrimidine-4-carboxamido)-5-oxo-5-(4-(pentyloxycarbonyl)piperazin-1-yl)pentanoic acid] | 2600 |
| CCCCCOC(=O)N1CCN(C(=O)[C@H](CCC(=O)O)NC(=O)c2cc(N3CC(O)C3)nc(-c3ccccc3)n2)CC1 [(S)-4-(6-(3-hydroxyazetidin-1-yl)-2-phenylpyrimidine-4-carboxamido)-5-oxo-5-(4-(pentyloxycarbonyl)piperazin-1-yl)pentanoic acid] | 3500 |
| CCCCCOC(=O)N1CCN(C(=O)[C@H](CCC(=O)O)NC(=O)c2cc(OCCCN3CCOCC3)nc(-c3ccccc3)n2)CC1 [(S)-4-(6-(3-morpholinopropoxy)-2-phenylpyrimidine-4-carboxamido)-5-oxo-5-(4-(pentyloxycarbonyl)piperazin-1-yl)pentanoic acid] | 8700 |
| CCCCCOC(=O)N1CCN(C(=O)[C@H](CCC(=O)O)NC(=O)c2cc(N3CCC(CC(=O)N4CCC4)CC3)nc(-c3ccccc3)n2)CC1 [(S)-4-(6-(4-(2-(azetidin-1-yl)-2-oxoethyl)piperidin-1-yl)-2-phenylpyrimidine-4-carboxamido)-5-oxo-5-(4-(pentyloxycarbonyl)piperazin-1-yl)pentanoic acid] | 1000 |
| CCCCCOC(=O)N1CCN(C(=O)[C@H](CCC(=O)O)NC(=O)c2cc(N3CCC(CC(=O)N(CC)CC)CC3)nc(-c3ccccc3)n2)CC1 [(S)-4-(6-(4-(2-(diethylamino)-2-oxoethyl)piperidin-1-yl)-2-phenylpyrimidine-4-carboxamido)-5-oxo-5-(4-(pentyloxycarbonyl)piperazin-1-yl)pentanoic acid] | 2600 |
| CCCCCOC(=O)N1CCN(C(=O)[C@H](CCC(=O)O)NC(=O)c2cc(N3CCC(CC(=O)NCC)CC3)nc(-c3ccccc3)n2)CC1 [(S)-4-(6-(4-(2-(ethylamino)-2-oxoethyl)piperidin-1-yl)-2-phenylpyrimidine-4-carboxamido)-5-oxo-5-(4-(pentyloxycarbonyl)piperazin-1-yl)pentanoic acid] | 1600 |
| CCCCCOC(=O)N1CCN(C(=O)[C@H](CCC(=O)O)NC(=O)c2cc(N3CCC(CC(=O)NC)CC3)nc(-c3ccccc3)n2)CC1 [(S)-4-(6-(4-(2-(methylamino)-2-oxoethyl)piperidin-1-yl)-2-phenylpyrimidine-4-carboxamido)-5-oxo-5-(4-(pentyloxycarbonyl)piperazin-1-yl)pentanoic acid] | 1100 |
| CCCCCOC(=O)N1CCN(C(=O)[C@H](CCC(=O)O)NC(=O)c2cc(N3CCC(OCCOC)CC3)nc(-c3ccccc3)n2)CC1 [(S)-4-(6-(4-(2-methoxyethoxy)piperidin-1-yl)-2-phenylpyrimidine-4-carboxamido)-5-oxo-5-(4-(pentyloxycarbonyl)piperazin-1-yl)pentanoic acid] | 1400 |
| CCCCCOC(=O)N1CCN(C(=O)[C@H](CCC(=O)O)NC(=O)c2cc(N3CCN(CCOC)CC3)nc(-c3ccccc3)n2)CC1 [(S)-4-(6-(4-(2-methoxyethyl)piperazin-1-yl)-2-phenylpyrimidine-4-carboxamido)-5-oxo-5-(4-(pentyloxycarbonyl)piperazin-1-yl)pentanoic acid] | 2200 |
| CCCCCOC(=O)N1CCN(C(=O)[C@H](CCC(=O)O)NC(=O)c2cc(N3CCC(CCOC)CC3)nc(-c3ccccc3)n2)CC1 [(S)-4-(6-(4-(2-methoxyethyl)piperidin-1-yl)-2-phenylpyrimidine-4-carboxamido)-5-oxo-5-(4-(pentyloxycarbonyl)piperazin-1-yl)pentanoic acid] | 6300 |
| CCCCCOC(=O)N1CCN(C(=O)[C@H](CCC(=O)O)NC(=O)c2cc(N3CCC(CNCC)CC3)nc(-c3ccccc3)n2)CC1 [(S)-4-(6-(4-((ethylamino)methyl)piperidin-1-yl)-2-phenylpyrimidine-4-carboxamido)-5-oxo-5-(4-(pentyloxycarbonyl)piperazin-1-yl)pentanoic acid] | 770 |
| CCCCCOC(=O)N1CCN(C(=O)[C@H](CCC(=O)O)NC(=O)c2cc(N3CCC(CN)CC3)nc(-c3ccccc3)n2)CC1 [(S)-4-(6-(4-(aminomethyl)piperidin-1-yl)-2-phenylpyrimidine-4-carboxamido)-5-oxo-5-(4-(pentyloxycarbonyl)piperazin-1-yl)pentanoic acid] | 490 |
| CCCCCOC(=O)N1CCN(C(=O)[C@H](CCC(=O)O)NC(=O)c2cc(N3CCC(C(=O)N4CCC4)CC3)nc(-c3ccccc3)n2)CC1 [(S)-4-(6-(4-(azetidine-1-carbonyl)piperidin-1-yl)-2-phenylpyrimidine-4-carboxamido)-5-oxo-5-(4-(pentyloxycarbonyl)piperazin-1-yl)pentanoic acid] | 230 |

Now from value to compound:

| IC50 [nM] | Structure (SMILES) |
| --- | --- |
| > 10000 | CCCCCOC(=O)N1CCN(C(=O)[C@H](CCC(=O)O)NC(=O)c2nc(-c3ccccc3)cc(N3CCOCC3)n2)CC1 [(S)-4-(4-morpholino-6-phenylpyrimidine-2-carboxamido)-5-oxo-5-(4-(pentyloxycarbonyl)piperazin-1-yl)pentanoic acid] |
| 3700 | CCCCCOC(=O)N1CCN(C(=O)[C@H](CCC(=O)O)NC(=O)c2cc(NC3CCN(C(C)C)CC3)nc(-c3ccccc3)n2)CC1 [(S)-4-(6-(1-isopropylpiperidin-4-ylamino)-2-phenylpyrimidine-4-carboxamido)-5-oxo-5-(4-(pentyloxycarbonyl)piperazin-1-yl)pentanoic acid] |
| 7900 | CCCCCOC(=O)N1CCN(C(=O)[C@H](CCC(=O)O)NC(=O)c2cc(OCCOC)nc(-c3ccccc3)n2)CC1 [(S)-4-(6-(2-methoxyethoxy)-2-phenylpyrimidine-4-carboxamido)-5-oxo-5-(4-(pentyloxycarbonyl)piperazin-1-yl)pentanoic acid] |
| 4100 | CCCCCOC(=O)N1CCN(C(=O)[C@H](CCC(=O)O)NC(=O)c2cc(N3CC(OCC)C3)nc(-c3ccccc3)n2)CC1 [(S)-4-(6-(3-ethoxyazetidin-1-yl)-2-phenylpyrimidine-4-carboxamido)-5-oxo-5-(4-(pentyloxycarbonyl)piperazin-1-yl)pentanoic acid] |
| 530 | CCCCCOC(=O)N1CCN(C(=O)[C@H](CCC(=O)O)NC(=O)c2cc(N3CCN(CC(=O)N(C)C)CC3)nc(-c3ccccc3)n2)CC1 [(S)-4-(6-(4-(2-(dimethylamino)-2-oxoethyl)piperazin-1-yl)-2-phenylpyrimidine-4-carboxamido)-5-oxo-5-(4-(pentyloxycarbonyl)piperazin-1-yl)pentanoic acid] |
| 400 | CCCCCOC(=O)N1CCN(C(=O)[C@H](CCC(=O)O)NC(=O)c2cc(N3CCC(CCN(C)C)CC3)nc(-c3ccccc3)n2)CC1 [(S)-4-(6-(4-(2-(dimethylamino)ethyl)piperidin-1-yl)-2-phenylpyrimidine-4-carboxamido)-5-oxo-5-(4-(pentyloxycarbonyl)piperazin-1-yl)pentanoic acid] |
| 620 | CCCCCOC(=O)N1CCN(C(=O)[C@H](CCC(=O)O)NC(=O)c2cc(N3CCC(CCN)CC3)nc(-c3ccccc3)n2)CC1 [(S)-4-(6-(4-(2-aminoethyl)piperidin-1-yl)-2-phenylpyrimidine-4-carboxamido)-5-oxo-5-(4-(pentyloxycarbonyl)piperazin-1-yl)pentanoic acid] |
| 1300 | CCCCCOC(=O)N1CCN(C(=O)[C@H](CCC(=O)O)NC(=O)c2cc(N3CCC(OCCO)CC3)nc(-c3ccccc3)n2)CC1 [(S)-4-(6-(4-(2-hydroxyethoxy)piperidin-1-yl)-2-phenylpyrimidine-4-carboxamido)-5-oxo-5-(4-(pentyloxycarbonyl)piperazin-1-yl)pentanoic acid] |
| 2000 | CCCCCOC(=O)N1CCN(C(=O)[C@H](CCC(=O)O)NC(=O)c2cc(N3CCC(COCCOC)CC3)nc(-c3ccccc3)n2)CC1 [(S)-4-(6-(4-((2-methoxyethoxy)methyl)piperidin-1-yl)-2-phenylpyrimidine-4-carboxamido)-5-oxo-5-(4-(pentyloxycarbonyl)piperazin-1-yl)pentanoic acid] |
| 740 | CCCCCOC(=O)N1CCN(C(=O)[C@H](CCC(=O)O)NC(=O)c2cc(N3CCC(CNC)CC3)nc(-c3ccccc3)n2)CC1 [(S)-4-(6-(4-((methylamino)methyl)piperidin-1-yl)-2-phenylpyrimidine-4-carboxamido)-5-oxo-5-(4-(pentyloxycarbonyl)piperazin-1-yl)pentanoic acid] |
